Laboratory results taken from US20210047304A1, “Bromodomain Inhibitors” (AbbVie Inc., priority 2016, published 2021).

Target: BRD4 (BDI_K57-E168) (Homo sapiens, UniProt O60885)
Assay: TR-FRET bromodomain binding assay, BRD4 BDI

Row | Ki | SMILES
1 | 1440 nM | COCC(=O)N[C@H]1CC[C@H](Oc2cc(=O)n(C)cc2-c2cc(C(C)(C)O)ccc2Oc2c(C)cc(F)cc2C)CC1 [Example 53, N-[trans-4-({5-[2-(4-fluoro-2,6-dimethylphenoxy)-5-(2-hydroxypropan-2-yl)phenyl]-1-methyl-2-oxo-1,2-dihydropyridin-4-yl}oxy)cyclohexyl]-2-methoxyacetamide]
2 | 2260 nM | CC(=O)N(CCO)[C@H]1CC[C@H](Oc2cc(=O)n(C)cc2-c2cc(C(C)(C)O)ccc2Oc2c(C)cc(F)cc2C)CC1 [Example 54, N-[trans-4-({5-[2-(4-fluoro-2,6-dimethylphenoxy)-5-(2-hydroxypropan-2-yl)phenyl]-1-methyl-2-oxo-1,2-dihydropyridin-4-yl}oxy)cyclohexyl]-N-(2-hydroxyethyl)acetamide]
3 | 1870 nM | CCOC(=O)CC(=O)N[C@H]1CC[C@H](Oc2cc(=O)n(C)cc2-c2cc(C(C)(C)O)ccc2Oc2c(C)cc(F)cc2C)CC1 [Example 55, ethyl 3-{[trans-4-({5-[2-(4-fluoro-2,6-dimethylphenoxy)-5-(2-hydroxypropan-2-yl)phenyl]-1-methyl-2-oxo-1,2-dihydropyridin-4-yl}oxy)cyclohexyl]amino}-3-oxopropanoate]
4 | 2430 nM | CC(=O)C(=O)N[C@H]1CC[C@H](Oc2cc(=O)n(C)cc2-c2cc(C(C)(C)O)ccc2Oc2c(C)cc(F)cc2C)CC1 [Example 56, N-[trans-4-({5-[2-(4-fluoro-2,6-dimethylphenoxy)-5-(2-hydroxypropan-2-yl)phenyl]-1-methyl-2-oxo-1,2-dihydropyridin-4-yl}oxy)cyclohexyl]-2-oxopropanamide]
5 | 1660 nM | Cc1cc(F)cc(C)c1Oc1ccc(C(C)(C)O)cc1-c1cn(C)c(=O)cc1O[C@H]1CC[C@H](NC(=O)C(C)(C)C)CC1 [Example 57, N-[trans-4-({5-[2-(4-fluoro-2,6-dimethylphenoxy)-5-(2-hydroxypropan-2-yl)phenyl]-1-methyl-2-oxo-1,2-dihydropyridin-4-yl}oxy)cyclohexyl]-2,2-dimethylpropanamide]
6 | 783 nM | Cc1cc(F)cc(C)c1Oc1ccc(C(C)(C)O)cc1-c1cn(C)c(=O)cc1O[C@H]1CC[C@H](N(C)C(=O)C2(C)CC2)CC1 [Example 58, N-[trans-4-({5-[2-(4-fluoro-2,6-dimethylphenoxy)-5-(2-hydroxypropan-2-yl)phenyl]-1-methyl-2-oxo-1,2-dihydropyridin-4-yl}oxy)cyclohexyl]-N,1-dimethylcyclopropane-1-carboxamide]
7 | 6550 nM | Cc1cc(F)cc(C)c1Oc1ccc(C(C)(C)O)cc1-c1cn(C)c(=O)cc1O[C@H]1CC[C@H](N(C)C(=O)C(C)(C)C)CC1 [Example 59, N-[trans-4-({5-[2-(4-fluoro-2,6-dimethylphenoxy)-5-(2-hydroxypropan-2-yl)phenyl]-1-methyl-2-oxo-1,2-dihydropyridin-4-yl}oxy)cyclohexyl]-N,2,2-trimethylpropanamide]
8 | 4660 nM | Cc1cc(F)cc(C)c1Oc1ncc(C(C)(C)O)cc1-c1cn(C)c(=O)cc1O[C@H]1CC[C@H](N2CCCC2=O)CC1 [Example 60, 2′-(4-fluoro-2,6-dimethylphenoxy)-5′-(2-hydroxypropan-2-yl)-1-methyl-4-{[trans-4-(2-oxopyrrolidin-1-yl)cyclohexyl]oxy}[3,3′-bipyridin]-6(1H)-one]
9 | 12200 nM | Cc1cc(F)cc(C)c1Oc1ccc(C(C)(C)O)cc1-c1cn(C)c(=O)cc1O[C@H]1CC[C@H](C(=O)O)CC1 [Example 61, trans-4-({5-[2-(4-fluoro-2,6-dimethylphenoxy)-5-(2-hydroxypropan-2-yl)phenyl]-1-methyl-2-oxo-1,2-dihydropyridin-4-yl}oxy)cyclohexane-1-carboxylic acid]
10 | 8370 nM | Cc1cc(F)cc(C)c1Oc1ccc(C(C)(C)O)cc1-c1cn(C)c(=O)cc1O[C@H]1CC[C@H](C(=O)N2CCCC2)CC1 [Example 62, 5-[2-(4-fluoro-2,6-dimethylphenoxy)-5-(2-hydroxypropan-2-yl)phenyl]-1-methyl-4-{[trans-4-(pyrrolidine-1-carbonyl)cyclohexyl]oxy}pyridin-2(1H)-one]
